Assay results taken from patent US20040042984A1, “Skin whitening composition containing arbutin and glucosidase as active ingredients” (priority 2001, published 2004).

Experiments:
[1] = Stability of the mixed composition by decoloration (absorbance at 400 nm); type: physicochemical; details: for Absorbance (400 nm): 100 mM, reacted 37° C. 10 minutes pH 5.0, TCA, supernatant incubated at 37° C. for 24 hours; for Discoloration rate (% of decoloring of hydroquinone solution): hydroquinone solution regarded as 100%, 37° C. for 24 hours
Protocol: The absorbency was measured at 400 nm and the degree of discoloring can be expressed in the ratio of the extent of arbutin solution to that of hydroquinone solution.
The formula stability of arbutin-glucosidase mixed formula compared with the hydroquinone only formula was examined by the decoloration. 100 mM arbutin and each 1, 10 and 20 unit/ml glucosidase were reacted in 1 ml of sodium acetate buffer (pH 5.0) at 37° C. for 10 minutes. The reaction was terminated by cooling down in the ice water. Then its mixed 1 ml of cold 20% Trichloroacetic acid (TCA) was added to remove glucosidase activity. The mixture was centrifuged at 12000 rpm. The supernatant solution incubated at 37° C. for 24 hours and the absorbency was measured at […]. The degree of decoloration of hydroquinone was regarded as 100% and the ratio of other samples compared to hydroquinone were calculated. As the control, 100 mM arbutin and 100 mM hydroquinone solution (sigma, USA) was used.

[2] = tested on: skin of the lower part of the volunteers' arms; assay: Occlusive patch test for primary skin irritation; type: in vivo, human; design: Response 24 h / Response 48 h: key to the marks not given beside the values; details: for skin irritation (in words): occlusive patch test
Protocol: In another preferred embodiments of this invention, the safety of this composition was tested by skin-irritation against the occlusive patch applied to healthy-adult volunteers. […] It is interpreted that the skin is more adaptable to the gradually increasing amount of irritant than the high concentration of irritant at a time.
The occlusive patch test was performed to examine skin irritation of the mixture of arbutin and glucosidase by 30 healthy adults. The test patches containing the solution of arbutin and glucosidase of preferred embodiment 2 were applied to the lower part of the volunteers' arms. After 24 hours, the patches were removed. The status of skin was observed from 30 minutes to 48 hours after removing the patches, and the degree of irritation has been classified as described in Table 3a.

| Absorbance (400 nm) [1] | Discoloration rate (% of decoloring of hydroquinone solution) [1] | SMILES | skin irritation (in words) [2] | skin irritation (in words) ([2]; listed as hydroquinone composition) | Response 24 h ([2]; occlusive patch, 30 healthy adults, 24 h) | Response 48 h ([2]; occlusive patch, 30 healthy adults, 48 h) |
| --- | --- | --- | --- | --- | --- | --- |
| 0.005 | 1.40% | OC[C@H]1O[C@@H](Oc2ccc(O)cc2)[C@H](O)[C@@H](O)[C@@H]1O [Arbutin solution, Arbutin] |  |  |  |  |
| 0.356 | 100% | Oc1ccc(O)cc1 [Hydroquinone solution, Hydroquinone] | very strong skin irritation | showed the positive irritation | +++ | +++ |
